Measurements published in patent US7323454B2, “Etonogestrel esters” (N.V. Organon, priority 2002, dated 2008).

Assay: Pharmacokinetics of etonogestrel esters in the rabbit after one i.m. injection; plasma etonogestrel by LC-MSMS
Assay type: in vivo
Method: For the determination of the pharmacokinetic profile of the different etonogestrel-esters after parenteral application, i.m. application in the castrated rabbit model was chosen instead of s.c. Briefly, rabbits were injected once (day 1) with indicated etonogestrel-esters at 20 mg/kg in arachis oil (with a concentration of 40 mg/ml). At day 1, 2, 3, 4, 5, 6, 7, 8, 10, 12, 14, 21, 28, 35, 49, 63, 77, 92, 106, 120 and 133 blood was collected from the ear arteria, in EDTA-containing tubes. EDTA plasma was prepared (1500 g, 15 min) and stored at −20° C. With LC-MSMS the amount of parent compound (etonogestrel) was determined in these samples. The lower limit of this new assay is 0.5 nmol/l, from 0-250 nmol/l a linear curve was obtained with a correlation coefficient of 0,9998.

[1] = one i.m. injection, 20 mg/kg in arachis oil
[2] = one i.m. injection, 20 mg/kg in arachis oil, parent etonogestrel measured

SMILES	time of initial peak level of etonogestrel [1]	initial peak level of etonogestrel in plasma [2] [nmol/L]	other results
C#C[C@]1(OC(=O)CCCCCCCC)CC[C@H]2[C@@H]3CCC4=CC(=O)CC[C@@H]4[C@H]3C(=C)C[C@@]21CC [Etonogestrel nonanoate]	–	–	duration with serum levels of etonogestrel above 1 nmol/l (in words) [1]: extended duration; initial peak levels of etonogestrel (in words) [1]: lower peak levels
C#C[C@]1(OC(=O)CCCCCCCCCCCC)CC[C@H]2[C@@H]3CCC4=CC(=O)CC[C@@H]4[C@H]3C(=C)C[C@@]21CC [etonogestrel tridecanoate]	–	–	initial peak levels of etonogestrel (in words) [1]: no initial levels of etonogestrel were observed
C#CC1(OC(=O)CCCCCCCCC)CCC2C3CCC4=CC(=O)CCC4C3C(=C)CC21CC (stereo not shown) [etonogestrel decanoate]	5 days	24	–
C#C[C@]1(OC(=O)CCCCCCCCCC)CC[C@H]2[C@@H]3CCC4=CC(=O)CC[C@@H]4[C@H]3C(=C)C[C@@]21CC [etonogestrel undecanoate]	eight	13	duration of action (etonogestrel level above 1 nmol/l) [1]: more than 92 days
C#C[C@]1(O)CC[C@H]2[C@@H]3CCC4=CC(=O)CC[C@@H]4[C@H]3C(=C)C[C@@]21CC [etonogestrel, (17α)-13-ethyl-17-hydroxy-11-methylene-18,19-dinorpregn-4-en-20-yn-3-one]	–	–	initial peak level of etonogestrel in plasma (in vivo, 20 mg/kg): 200 nmol/L; time in which etonogestrel levels declined to below 1 nmol/l (in vivo, 20 mg/kg): 28 days
C#C[C@]1(OC(=O)CCCCCC)CC[C@H]2[C@@H]3CCC4=CC(=O)CC[C@@H]4[C@H]3C(=C)C[C@@]21CC [Etonogestrel-heptanoate]	–	120	–
C#C[C@]1(OC(=O)CCCCCCCCCCC)CC[C@H]2[C@@H]3CCC4=CC(=O)CC[C@@H]4[C@H]3C(=C)C[C@@]21CC [etonogestrel dodecanoate]	8 days	9	–
